Results published in patent US9067920B2, “Compounds useful for inhibiting Chk1” (Eli Lilly and Company, priority 2010, dated 2015).
Counter-ions that a name gives are not always drawn.

What was measured:
Chk1 = biological target: T1, Chk1 (Homo sapiens, UniProt O14757); assay: Chk1 biochemical assay (CHK1/substrate peptide filter binding); conditions: 60 μM ATP, 0.75 nM Chk1 enzyme
T1 sequence (O14757 1-476): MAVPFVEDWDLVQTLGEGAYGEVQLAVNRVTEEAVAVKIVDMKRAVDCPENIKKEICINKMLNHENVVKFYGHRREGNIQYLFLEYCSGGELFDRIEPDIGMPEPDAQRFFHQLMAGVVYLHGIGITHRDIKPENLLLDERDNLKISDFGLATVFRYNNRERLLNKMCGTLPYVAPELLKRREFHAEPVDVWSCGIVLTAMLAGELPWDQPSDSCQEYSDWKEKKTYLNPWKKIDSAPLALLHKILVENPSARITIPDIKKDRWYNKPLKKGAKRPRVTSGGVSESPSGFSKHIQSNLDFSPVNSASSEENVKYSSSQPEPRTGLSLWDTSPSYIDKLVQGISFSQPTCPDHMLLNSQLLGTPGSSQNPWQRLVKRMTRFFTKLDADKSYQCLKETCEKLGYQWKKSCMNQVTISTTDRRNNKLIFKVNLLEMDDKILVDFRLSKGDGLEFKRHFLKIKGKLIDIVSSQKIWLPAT
Description: The effect of compounds on Chk1 biochemical activity can be determined using a CHK1/substrate peptide filter binding assay. In this assay, a synthetic peptide based on the amino acid sequence residues 206-225 of Cdc25, is used as a phospho-acceptor substrate for recombinant Chk1 protein kinase. Using γ-^33P-ATP as the phospho-donor substrate, Chk1 transfers the radioactive γ-^33phosphate group to the synthetic peptide. The reaction is measured by capturing the peptide substrate on a cation exchange paper filter plate and scintillation counting of emitted beta particles.
The kinase reactions (40 μL reaction volumes) are performed in 96-well V-bottom polystyrene plates. Reactions are initiated with the addition of Chk1 enzyme. […]
Following Chk1 enzyme addition, the reactions are incubated at room temperature for 90 min, and then terminated with the addition of 140 μL of phosphoric acid. […] After sitting for 4 h at room temperature, the radioactivity in the plate is measured using a MicroBeta Trilux microplate scintillation counter (Perkin Elmer).
For IC50 determination, the percent inhibition for each concentration is calculated using the scintillation count ratio from controls run on each plate. […] Absolute IC50 values are calculated from the resulting curve. […]

[1] = tested on: HT-29 colon carcinoma cells; assay: ECtfs (two-fold sensitization) assay, gemcitabine potentiation, MTS; format: cell-based
Description: An inhibitor of Chk1 can potentiate the anti-proliferative activity of gemcitabine (or other cytotoxics) through abrogation of the intra-S phase checkpoint, resulting in sustained and increased DNA damage. The capacity for continued tumor cell proliferation after DNA damage can be analyzed by determining the ability of cells to replicate their DNA. […] In this assay, cells are treated with a dilution series of gemcitabine, and then 22 h later with the compound of Example 3, After an additional 44 h, the relative cell number is assessed by a MTS (3-(4,5-dimethylthiazol-2-yl)-5-(3-carboxymethoxyphenyl)-2-(4-sulfophenyl)-2H-tetrazolium) dye reduction assay. The ECtfs parameter is a measure of the concentration of a Chk1 inhibitor necessary to reduce by half the (1190 concentration of gemcitabine, measured in this assay in the absence of Chk1 inhibition. HT-29 cells (obtained from ATCC), are grown in RPMI 1640 plus 10% (v/v) heat inactivated FBS, The cells are plated at 2.5×10^3 per well, in a volume of 100 μL on 96-well tissue culture plates and incubated for 24 h. Gemcitabine dilutions are prepared at 6× concentrations in McCoy's 5A medium (modified) (1×) and added to wells at 20 μper well. Gemcitabine dilutions were set up with the highest final concentration of gemcitabine being 1.0 μM and dilutions made by three-fold steps to 0.5 nM.
Chk1 Inhibitor is prepared by dilutions in DMSO to 4000× final concentration, and then diluted 666-fold into McCoy's medium to generate 6× stocks. Chk1 inhibitor dilutions proceed by 2.5-fold steps starting at 25 nM down to 0.3 nM. Twenty-two hours 1.0 after gemcitabine addition, Chk1, inhibitor is added in a volume of 24 μL to wells containing 120 μL of medium plus gemcitabine. Each gemcitabine dilution receives a single Chk1 inhibitor dilution. Control wells received DMSO, gemcitabine, or Chk1 inhibitor alone. Forty-four hours after addition of Chk1 inhibitor, 30 μL of CellTiter 96® AQueous assay reagent, is added to each well and held at room temperature for 1 hour and 45 minutes. Absorbance is read on a SpectraMax 250 (Molecular Devices) spectrophotometer at 490 nm. Data from the SpectraMax spectrophotometer are analyzed with GraphPad Prism 4.0. First, an averaged no cell control absorbance is subtracted from all other values in the matrix of data from each plate. Next, duplicate data points are averaged. Data are normalized for each Chk1 inhibitor concentration, with 0% cell number set as corrected A490=0, and 100% cell number set as the 0 nM gemcitabine mean value. […] Gemcitabine concentrations are converted to log concentrations, and normalized cell number values are converted to percent inhibition (percent inhibition=1.00-normalized value). Transformed data are plotted, and a non-linear regression is run to estimate an IC50 value for gemcitabine at each Chk1 inhibitor concentration. The nonlinear regression is calculated allowing the slope to vary, and without constraints for the top or bottom of the dose-response curves. The ECtfs value is calculated as follows: GI50 values for gemcitabine for each Chk1 inhibitor concentration are determined, plotted, and the concentration of Chk1 inhibitor necessary to decrease the gemcitabine alone GI50 by two-fold is determined by interpolation.
Compounds within the scope of the invention are tested in this assay run substantially as above. For example, the compound of Example 3 is tested and found to have an ECtfs value of 1.0 nM (SE=0.1, n=3). […]

IC50 (Chk1) [nM] | SMILES | decrease of the EC50 of gemcitabine ([1]; HT-29 cells, 25 nM of the compound) [fold] | ECtfs value ([1]; HT-29 cells, concentration that decreases the gemcitabine GI50 two-fold) [nM] | effect on the proliferation of HT-29 cells ([1]; compound alone, 25 nM)
< 1 | COc1nc(C)ccc1-c1cc(Nc2cncc(O[C@@H]3CCCNC3)n2)[nH]n1 [Example 1, (R)-[5-(2-Methoxy-6-methyl-pyridin-3-yl)-2H-pyrazol-3-yl]-[6-(piperidin-3-yloxy)-pyrazin-2-yl]-amine] |  |  | 
 | COc1nc(C)ccc1-c1cc(Nc2cncc(O[C@@H]3CCCNC3)n2)[nH]n1 [Example 3, (R)-[5-(2-Methoxy-6-methyl-pyridin-3-yl)-2H-pyrazol-3-yl]-[6-(piperidin-3-yloxy)-pyrazin-2-yl]-amine acetic acid salt] | 7 | 1.0 | little effect
